In general, melting point refers to the temperature, or range, at which the solid turns liquid. Take `Nc1nc(-c2ccccc2)cc(C2CCN(C(=O)c3ccccc3)CC2)n1`: the melting point was in the range of 104 to 105 °C.
To `CC(=O)ON=C1C(=O)Nc2cc(Cl)cc(Cl)c2C1=O` belongs 194 to 195 °C.
`C#CC1=Cc2cc(Cl)ccc2Sc2ccc(SC)cc21` had a melting point of 100 to 103 °C.
The value for `Clc1cccc(-c2cnccn2)c1` was 53 to 54 °C; that for `COC(=O)c1ccc(-c2nc(-c3ccc(OC)cc3)co2)cc1` was 200 to 202 °C.
The value for `Cc1cccc(Nc2cc(Cl)nc(SCC(=O)NC(C)CO)n2)c1C` (stereo unspecified) was 170 to 172 °C; that for `O=C(c1ccccc1)C1CNC(=S)C1` (stereo unspecified) was 110 to 112 °C.
`NCc1cc(-c2ccc(Cl)cc2)no1` registered a melting point of 81 °C.
To `COc1cccc(C(=O)Nc2ccc(N3CCOCC3)cc2C(C)=O)c1OC` belongs 146 to 148 °C; to `C/C(=C(\C#N)C(=S)/N=C/N(C)C)N1CCCN(c2ccc(Cl)cc2)CC1`, 259 to 264 °C; to `CC(C)(Cc1ccccc1)C(NC(=O)c1ccc(Cl)cc1)Nc1c(Nc2cccnc2)c(=O)c1=O` (stereo unspecified), 223 to 224 °C.
The value for `COc1cc(NC(C)=O)ccc1OCCN1CCN(c2ccccc2F)CC1` was 118 to 119 °C; that for `O=C(CCCCCNC(=O)OCc1ccccc1)NCCCCCO` was 92.5 to 94 °C; that for `CCCOc1cc2c(cc1C=O)C(C)(C)CCC2(C)C` was 51 to 52 °C.
The value for `COCC1Cc2c(Cl)c(C)cc([N+](=O)[O-])c2O1` (stereo unspecified) was 117 to 119 °C; that for `Cc1ccc(Sc2c(O)c3ccc(Cl)cc3[nH]c2=O)cc1` was 245 to 246 °C.
The compound `CN(C)C=C(C=O)OCCO` gave a melting point of 148 to 150 °C.
To `Cc1ccc(-c2nc3cccnc3n2CC(=O)O)s1` belongs more than 250 °C; to `CCCCCCn1c(C)cc(C)c(C(=O)O)c1=O`, 79 to 82.5 °C; to `COc1ccc(CON(Cc2ccccc2)S(C)(=O)=O)cc1`, 85 to 87 °C.
To `Cn1c(=O)cc(CCc2cccc(Cl)c2)c2cc(C(O)(c3ccc(Cl)cc3)c3cccnc3)ccc21` (stereo unspecified) belongs 115 °C; to `O=S(=O)(NC=NCCCOc1cccc(CN2CCCCC2)c1)c1ccc(Cl)cc1`, 75 to 79 °C.
The value for `COC(=O)C1=C(C)NC(C)=C(C(=O)OCCc2cc(C)[nH]c2C)C1c1cccc([N+](=O)[O-])c1` (stereo unspecified) was 156 to 160 °C; that for `O=C(O)c1cc(=O)c2oc3ccc(Cl)cc3c(=O)c2n1Cc1ccccc1` was 269 to 271 °C.
In turn, `O=C(O)CCCCCCC1C(=O)CC(=O)C1=O` (stereo unspecified) had a melting point of 102 to 104 °C.
The value for `CCNC(=O)n1ccc2ccccc21` was 71 to 73 °C.
The value for `COc1cccc(-c2ccccc2CNC(=O)C(C)C)c1` was 103 to 105 °C; that for `CCCc1nc(C(C)(C)O)c(C(=O)OC2OC(=O)c3ccccc32)n1Cc1ccc(-c2ccccc2-c2nnn[nH]2)cc1` (stereo unspecified) was 168 to 170 °C.
The value for `CNC(=O)c1oc(C(C)(C)C)cc1NC(=O)Nc1ccc(C)cc1` was 190 to 193 °C; that for `Cc1cccc(CC(Cc2cccc(C)c2)C(=O)O)c1` was 86 to 88 °C; that for `CC(CF)(CF)n1cc(C(=O)O)c(=O)c2cc(F)c(N3C[C@@H]4NCCO[C@@H]4C3)cc21` was more than 250 °C.
Regarding `Cc1ccc(-c2ccc(Cl)cc2)cc1C1C(=O)COC(C)(C)C1=O` (stereo unspecified), the melting point fell in the range of 186 to 188 °C.
With `CCOC(=O)C(C#N)=CNc1ccc(CC)cn1`, the melting point was 155 to 156 °C.
To `CN1CC(OC(=O)c2ccccc2)N(N2CC=C(C(C)(C)C)O2)C1=O` (stereo unspecified) belongs 165 to 166 °C; to `N#CCCNC(=O)c1cc(F)cc(-c2cccc3cc(Cc4ccc(F)c(Cl)c4)sc23)c1`, 127 to 128 °C; to `COC(=O)N1CCN(c2ccc(N3CC(CNC(C)=O)OC3=O)cc2F)CC1` (stereo unspecified), 177 to 179 °C.
To `CCOc1ccc(C2=NN(c3ccc(C(=O)N4CCN(c5cnn(-c6ccccc6)c(=O)c5Cl)CC4)cc3)C(=O)[C@@H]3CC=CC[C@H]23)cc1OCC` belongs 148 to 151 °C; to `CC1(C)CC(=O)C2=C(C1)NC1=C(C(=O)CC(C)(C)C1)C2c1ccc(Cl)c(Oc2ccccc2)c1`, 246 to 248 °C; to `O=C(OI(OC(=O)C(F)(F)F)C(F)(F)C(F)(F)C(F)(F)C(F)(F)C(F)(F)C(F)(F)C(F)(F)F)C(F)(F)F`, 68 to 70 °C.
To `COCCNC(=O)Cc1ccc2ccn(C3CCN(CCc4ccc(F)cc4)CC3)c2c1` belongs 113 to 114 °C.
Take `CCOC(=O)NNC(=O)Nc1ccc(C(F)(F)F)cc1`: the melting point lay in the range of 205 to 208 °C.
The compound `CCCCCCCCCCCCCCc1ccc(S(=O)(=O)Cl)cc1` displayed a melting point of 32 to 33 °C.
The value for `COC(=O)Cc1cccc2c(=O)cc(C3=CCCCC3)oc12` was 137 to 138 °C.
To `Clc1ccc(CN2CC=C(/C=C/c3ccc4c(c3)OCO4)CC2)cc1` belongs 122 to 124 °C; to `COc1ccc(-c2nc3sccn3c2/C=C/C(=O)c2ccc3c(c2)OCO3)cc1`, 189 to 191 °C; to `CCOC(=O)C(Cc1ccccc1)=NO`, 54 to 55 °C.
The value for `CCOC(=O)CC(=O)Nc1ccc(F)cc1F` was 66 to 68 °C.
The compound `COC(=O)CCc1cc(C)cc(NC(C)=O)n1` had a melting point of 82 °C.
In turn, `OC(CCNC1=NCCCN1)c1ccccc1` (stereo unspecified) yielded a melting point of 130 to 135 °C.
In turn, `CCCCCCS(=O)(=O)c1nn2c(=O)cc(C)nc2s1` had a melting point of 111 to 115 °C.
The value for `CCSc1c(C=NOCc2ccccc2)c(=O)n(C)c(=O)n1C` was 76 °C.
In turn, `COc1ccc(C=CC(=O)c2ccc(O)c(CC(=O)O)c2)cc1OC` showed a melting point of 225 °C.
To `CCOC(=O)c1oc2cccc(OCC(C)O)c2c1C` (stereo unspecified) belongs 94 to 96 °C; to `O=[N+]([O-])c1cc2nc(O)c(O)nc2c2c([N+](=O)[O-])cccc12`, more than 300 °C; to `COc1ccc(C(=O)Nc2ccc3ccc(C#N)nc3n2)cc1`, 283 °C.
As to `CCCCCCCCCCCCCCCCNc1c(Cl)cc(C(=O)O)cc1Cl`, the melting point is 92 to 94 °C.
Turning to `CCCCc1ccc(C(=O)Oc2ccc(C#N)c(F)c2)nc1`, the melting point lay in the range of 45.1 to 46.1 °C.
To `CC(C)COC(=O)Nc1cc(F)cc(F)c1` belongs 71 to 74 °C; to `CCc1nc2c(N)nc3ccccc3c2n1CCCC(C)=O`, 206 to 208 °C.
The value for `O=C1COC(C#CC2CC2)(C(F)(F)F)c2cc(Cl)ccc2N1` (stereo unspecified) was 200 °C.
The compound `c1cc2c3c(cccc3c1)C(NOCCCCn1ccnc1)=N2` displayed a melting point of 126 to 128 °C.
The value for `COC(=O)OC1C(OCc2ccccc2)C(COCc2ccccc2)OC(C)(OCc2ccccc2)C1NC(C)=O` (stereo unspecified) was 116 to 118 °C; that for `Cc1ccccc1N1CCc2c(C)nc3c(C)cccc3c21` was 126 to 128 °C.
In turn, `CCOC(=O)c1nc(-c2cccc(Br)c2)ns1` had a melting point of 87 to 90 °C.
To `COC(=O)C1COc2ccccc2C1` (stereo unspecified) belongs 83 to 84 °C; to `COc1ccc2c(c1)[C@@H](Oc1ccc3c(c1)CCC(=O)N3)[C@H](N1CCC[C@@H](N)C1)C2`, 146 °C.
The value for `NS(=O)(=O)c1ccc(-n2nc(C(F)(F)F)cc2-c2ccc(-c3cscn3)cc2)cc1` was 188 to 190 °C.
In turn, `Cc1nc(Nc2ccc(F)cc2)nc(O)c1C` registered a melting point of 256 °C.
To `Cc1ccc(NC(=O)c2ccccc2CN2C(=O)C3(COc4cc5c(cc43)CCO5)c3ccccc32)c(C)c1` (stereo unspecified) belongs 207 to 208 °C.
To `N#Cc1cc(F)ccc1O` belongs 121 to 122 °C; to `Cc1ccc(Cl)c(-c2ccc(S(=O)(=O)N3c4ccccc4CC3C(=O)NCCOc3ccc(CC(=O)O)cc3)cc2)c1` (stereo unspecified), 77 to 81 °C; to `CC(C)(C)OC(=O)C=C(O)c1cccnc1Oc1ccc(F)cc1`, 87 to 89 °C.
The value for `CC(=O)C1Oc2cc3c(cc2O1)=NC(F)(F)N=3` was more than 220 °C; that for `CCOc1cc(C2(C)CNC(=O)O2)ccc1OC` (stereo unspecified) was 85 °C; that for `O=C1CCC2(CC2)C(=O)C1` was 116 to 118 °C.
Regarding `CC(=O)C1=C(O)C(=C(C)Nc2ccc(OC(N)=O)cc2)C(=O)OC1=O`, the melting point is 213 to 215 °C.
The value for `CC(=O)C(C)(C)CS(=O)(=O)c1ccccc1` was 56 to 58 °C.
The value for `CN(N)C(=O)N=C1CCC(CC2CCC(=NC(=O)N(C)N)CC2)CC1` (stereo unspecified) was 187 to 193 °C; that for `CC(C)(C)NC(=O)C(C#N)C(=O)C1CC1` (stereo unspecified) was 97 to 98.5 °C.
The value for `Nc1c(-c2cc(Cl)ccc2O)c2c(C(F)(F)F)cccc2[nH]c1=O` was 267 to 268 °C; that for `O=c1ccc(S(=O)(=O)c2ccc(-c3ccccc3)cc2)n[nH]1` was 219 to 220 °C.
`CN1CCN(c2ccc(N/C=C3\C(=O)NC(=O)c4ccc(C(=O)N(C)C)cc43)cc2)CC1` registered a melting point of more than 300 °C.
As to `C[Si](C)(C)N1CCN(N=Cc2ccccc2)C(=O)C1=O`, the melting point lay in the range of 190 to 191 °C.
The value for `CCCCCC(Br)C(Br)CC(Br)C(Br)CCCCCCCBr` (stereo unspecified) was 62 to 64 °C.
In turn, `CC(C)(C)OC(=O)[C@@H]1CS[C@H](c2ccccc2F)N1C(=O)CNC(=O)Nc1cccc(CC(=O)O)c1` registered a melting point of 110 °C.
To `O=C(Oc1ccc(C(=C2CCCCC2)c2ccc(OC(=O)c3ccccc3)c(OC(=O)c3ccccc3)c2)cc1OC(=O)c1ccccc1)c1ccccc1` belongs 176 °C; to `CCC1(CCCCN2CCN(c3ccccn3)CC2)C(=O)Nc2ccccc21` (stereo unspecified), 131 to 133 °C; to `CCn1ncc2nc(C(N)=O)c(-c3ccccc3)nc21`, 189 to 190 °C.
For the compound `CC1CCc2cc([N+](=O)[O-])cnc2C1` (stereo unspecified), the melting point is 55 to 56 °C.
The value for `FC(F)(F)c1ccc2c(C3CCN(CCCOc4cccc5[nH]ccc45)CC3)c[nH]c2c1` was 92 to 97 °C; that for `O=S(=O)(N[C@H](Cc1ccc(C(F)(F)F)cc1)[C@@H](O)c1ccc(F)cc1)c1cccc2ccccc12` (racemic) was 176 to 177 °C.

The values above are taken from a melting point compilation (Tetko et al.; mined from patent text by program, amines drawn as free bases though some values may be those of a salt).
